Reference: ChEMBL document CHEMBL5390237, “Discovery of Selective Histone Deacetylase 1 and 2 Inhibitors: Screening of a Focused Library Constructed by Click Chemistry, Kinetic Binding Analysis, and Biological Evaluation” (J Med Chem, 2023)
The source made the active and inactive calls. No cut-off for these calls is given here.

Tests used:
Histone deacetylase 8 = biological target: T1, Histone deacetylase 8 (Homo sapiens, UniProt Q9BY41); test: Inhibition of full-length recombinant human C-terminal His-tagged HDAC8 expressed in Sf9 insect cells using aminoluciferin peptide substrate preincubated for 3 hrs followed by substrate addition and measured after 30 mins by HDAC-Glo I/II chemiluminescence assay
T1 sequence (Q9BY41 whole entry): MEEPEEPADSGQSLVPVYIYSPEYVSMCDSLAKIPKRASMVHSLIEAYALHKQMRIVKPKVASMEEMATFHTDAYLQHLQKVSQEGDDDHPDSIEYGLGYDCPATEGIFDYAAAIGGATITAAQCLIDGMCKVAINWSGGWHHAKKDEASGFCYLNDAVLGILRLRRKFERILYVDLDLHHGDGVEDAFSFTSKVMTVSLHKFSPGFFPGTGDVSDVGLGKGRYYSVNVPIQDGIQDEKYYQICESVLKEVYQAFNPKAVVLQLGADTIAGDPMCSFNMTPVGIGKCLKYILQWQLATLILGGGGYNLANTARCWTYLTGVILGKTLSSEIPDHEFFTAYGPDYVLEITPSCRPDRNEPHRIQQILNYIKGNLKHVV

[1] = biological target: Histone deacetylase 4 (Homo sapiens) (UniProt P56524); test: Inhibition of recombinant human HDAC4 using fluorogenic substrate preincubated for 3 hrs followed by substrate addition and measured after 30 mins by fluorescence analysis; conditions: time 3.5 hrs
[2] = biological target: Histone deacetylase 3/NCoR1 (Homo sapiens, UniProt O15379); test: Inhibition of recombinant human HDAC3/human GST-tagged NCOR1 (397 to 503 residues) using K(Ac)382 peptide substrate preincubated for 3 hrs followed by substrate addition and measured after 30 mins by HDAC-Glo I/II chemiluminescence assay; format: protein-complex assay
Histone deacetylase 2 [3] = biological target: T2, Histone deacetylase 2 (Homo sapiens, UniProt Q92769); test: Inhibition of full-length recombinant human C-terminal GST tagged HDAC2 expressed in Sf9 insect cells using aminoluciferin peptide substrate preincubated for 3 hrs followed by substrate addition and measured after 30 mins by HDAC-Glo I/II chemiluminescence assay; format: cell-based
[4] = biological target: T3, Histone deacetylase (Homo sapiens) (UniProt Q13547+O15379+Q9UBN7+Q92769+Q9UQL6+Q8WUI4+Q9BY41+Q96DB2+P56524+Q9UKV0+Q969S8); conditions: MCF7, dose 1.0 µM, time <= 48.0 hrs
MCF7 [5] = test: Upregulation of DDIT4 gene expression in human MCF7 cells at 2 uM incubated for 24 hrs by RT-qPCR analysis; format: functional, cell-based
Histone deacetylase 1 [6] = biological target: T4, Histone deacetylase 1 (Homo sapiens, UniProt Q13547); test: Inhibition of full-length recombinant human C-terminal GST tagged HDAC1 expressed in Sf9 insect cells using aminoluciferin peptide substrate at 10 to 100 nM preincubated for 3 hrs followed by substrate addition and measured after 30 mins by HDAC-Glo I/II chemiluminescence assay; conditions: dose 10-100 nM, time 3.5 hrs
Histone deacetylase 1 [7] = biological target: T4, Histone deacetylase 1; test: Inhibition of full-length recombinant human C-terminal GST tagged HDAC1 expressed in Sf9 insect cells using aminoluciferin peptide substrate preincubated for 3 hrs followed by substrate addition and measured after 30 mins by HDAC-Glo I/II chemiluminescence assay
MCF7 [8] = test: Upregulation of TP53INP1 gene expression in human MCF7 cells at 2 uM incubated for 24 hrs by RT-qPCR analysis; format: functional, cell-based
MCF7 [9] = test: Downregulation of E2F8 gene expression in human MCF7 cells at 2 uM incubated for 24 hrs by microarray analysis; format: functional, cell-based
Histone deacetylase 2 [10] = biological target: T2, Histone deacetylase 2; conditions: Sf9, dose 30-100 nM, time 3.5 hrs
Histone deacetylase 2 [11] = biological target: T2, Histone deacetylase 2; test: Inhibition of full-length recombinant human C-terminal GST tagged HDAC2 expressed in Sf9 insect cells using aminoluciferin peptide substrate at 100 nM preincubated for 3 hrs followed by substrate addition and measured after 30 mins by HDAC-Glo I/II chemiluminescence assay; conditions: time 3.5 hrs
MCF7 [12] = test: Downregulation of E2F7 gene expression in human MCF7 cells at 2 uM incubated for 24 hrs by microarray analysis; format: functional, cell-based
[13] = biological target: T3, Histone deacetylase (Homo sapiens); conditions: MCF7, dose 10.0 µM, time <= 48.0 hrs
MCF7 [14] = test: Upregulation of ERRF1 gene expression in human MCF7 cells at 2 uM incubated for 24 hrs by RT-qPCR analysis; format: functional, cell-based
MCF7 [15] = test: Downregulation of E2F1 gene expression in human MCF7 cells at 2 uM incubated for 24 hrs by microarray analysis; format: functional, cell-based
MCF7 [16] = test: Upregulation of GADD45A gene expression in human MCF7 cells at 2 uM incubated for 24 hrs by RT-qPCR analysis; format: functional, cell-based
MCF7 [17] = test: cells; format: functional; conditions: Homo sapiens, time 48 hrs
Description: Anticancer activity against human MCF7 cells overexpressing HDAC1 and HDAC2 assessed as inhibition of cell growth incubated for 48 hrs by sulforhodamine B assay

T4 sequence (Q13547 whole entry): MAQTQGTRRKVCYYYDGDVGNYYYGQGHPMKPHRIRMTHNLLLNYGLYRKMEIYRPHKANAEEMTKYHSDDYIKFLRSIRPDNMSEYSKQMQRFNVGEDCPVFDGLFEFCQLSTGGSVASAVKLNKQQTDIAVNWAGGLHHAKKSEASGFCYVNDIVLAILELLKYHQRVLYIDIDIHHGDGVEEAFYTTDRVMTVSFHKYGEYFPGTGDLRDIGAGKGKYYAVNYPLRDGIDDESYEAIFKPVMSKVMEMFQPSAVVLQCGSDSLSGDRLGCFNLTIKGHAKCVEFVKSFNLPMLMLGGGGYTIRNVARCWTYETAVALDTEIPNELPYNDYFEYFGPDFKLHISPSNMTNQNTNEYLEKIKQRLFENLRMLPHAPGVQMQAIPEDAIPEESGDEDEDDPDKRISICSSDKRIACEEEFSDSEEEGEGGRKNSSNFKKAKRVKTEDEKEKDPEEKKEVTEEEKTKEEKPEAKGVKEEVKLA
Histone deacetylase 3/NCoR1, sequence (O15379 whole entry, the tested form may be a part): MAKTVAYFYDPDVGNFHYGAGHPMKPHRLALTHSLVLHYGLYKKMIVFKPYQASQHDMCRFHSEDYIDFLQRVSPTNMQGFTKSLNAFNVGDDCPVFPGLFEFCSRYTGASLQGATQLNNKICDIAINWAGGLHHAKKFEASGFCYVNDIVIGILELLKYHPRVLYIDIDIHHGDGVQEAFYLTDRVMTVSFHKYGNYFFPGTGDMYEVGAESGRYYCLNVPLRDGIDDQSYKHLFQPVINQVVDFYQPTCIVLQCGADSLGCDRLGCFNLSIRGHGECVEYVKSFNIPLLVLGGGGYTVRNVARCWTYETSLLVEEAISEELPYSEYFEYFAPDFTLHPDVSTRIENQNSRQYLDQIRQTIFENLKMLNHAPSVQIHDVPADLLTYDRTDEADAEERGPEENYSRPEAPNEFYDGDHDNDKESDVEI
Histone deacetylase 3/NCoR1, sequence (O75376 whole entry, further chain, the tested form may be a part): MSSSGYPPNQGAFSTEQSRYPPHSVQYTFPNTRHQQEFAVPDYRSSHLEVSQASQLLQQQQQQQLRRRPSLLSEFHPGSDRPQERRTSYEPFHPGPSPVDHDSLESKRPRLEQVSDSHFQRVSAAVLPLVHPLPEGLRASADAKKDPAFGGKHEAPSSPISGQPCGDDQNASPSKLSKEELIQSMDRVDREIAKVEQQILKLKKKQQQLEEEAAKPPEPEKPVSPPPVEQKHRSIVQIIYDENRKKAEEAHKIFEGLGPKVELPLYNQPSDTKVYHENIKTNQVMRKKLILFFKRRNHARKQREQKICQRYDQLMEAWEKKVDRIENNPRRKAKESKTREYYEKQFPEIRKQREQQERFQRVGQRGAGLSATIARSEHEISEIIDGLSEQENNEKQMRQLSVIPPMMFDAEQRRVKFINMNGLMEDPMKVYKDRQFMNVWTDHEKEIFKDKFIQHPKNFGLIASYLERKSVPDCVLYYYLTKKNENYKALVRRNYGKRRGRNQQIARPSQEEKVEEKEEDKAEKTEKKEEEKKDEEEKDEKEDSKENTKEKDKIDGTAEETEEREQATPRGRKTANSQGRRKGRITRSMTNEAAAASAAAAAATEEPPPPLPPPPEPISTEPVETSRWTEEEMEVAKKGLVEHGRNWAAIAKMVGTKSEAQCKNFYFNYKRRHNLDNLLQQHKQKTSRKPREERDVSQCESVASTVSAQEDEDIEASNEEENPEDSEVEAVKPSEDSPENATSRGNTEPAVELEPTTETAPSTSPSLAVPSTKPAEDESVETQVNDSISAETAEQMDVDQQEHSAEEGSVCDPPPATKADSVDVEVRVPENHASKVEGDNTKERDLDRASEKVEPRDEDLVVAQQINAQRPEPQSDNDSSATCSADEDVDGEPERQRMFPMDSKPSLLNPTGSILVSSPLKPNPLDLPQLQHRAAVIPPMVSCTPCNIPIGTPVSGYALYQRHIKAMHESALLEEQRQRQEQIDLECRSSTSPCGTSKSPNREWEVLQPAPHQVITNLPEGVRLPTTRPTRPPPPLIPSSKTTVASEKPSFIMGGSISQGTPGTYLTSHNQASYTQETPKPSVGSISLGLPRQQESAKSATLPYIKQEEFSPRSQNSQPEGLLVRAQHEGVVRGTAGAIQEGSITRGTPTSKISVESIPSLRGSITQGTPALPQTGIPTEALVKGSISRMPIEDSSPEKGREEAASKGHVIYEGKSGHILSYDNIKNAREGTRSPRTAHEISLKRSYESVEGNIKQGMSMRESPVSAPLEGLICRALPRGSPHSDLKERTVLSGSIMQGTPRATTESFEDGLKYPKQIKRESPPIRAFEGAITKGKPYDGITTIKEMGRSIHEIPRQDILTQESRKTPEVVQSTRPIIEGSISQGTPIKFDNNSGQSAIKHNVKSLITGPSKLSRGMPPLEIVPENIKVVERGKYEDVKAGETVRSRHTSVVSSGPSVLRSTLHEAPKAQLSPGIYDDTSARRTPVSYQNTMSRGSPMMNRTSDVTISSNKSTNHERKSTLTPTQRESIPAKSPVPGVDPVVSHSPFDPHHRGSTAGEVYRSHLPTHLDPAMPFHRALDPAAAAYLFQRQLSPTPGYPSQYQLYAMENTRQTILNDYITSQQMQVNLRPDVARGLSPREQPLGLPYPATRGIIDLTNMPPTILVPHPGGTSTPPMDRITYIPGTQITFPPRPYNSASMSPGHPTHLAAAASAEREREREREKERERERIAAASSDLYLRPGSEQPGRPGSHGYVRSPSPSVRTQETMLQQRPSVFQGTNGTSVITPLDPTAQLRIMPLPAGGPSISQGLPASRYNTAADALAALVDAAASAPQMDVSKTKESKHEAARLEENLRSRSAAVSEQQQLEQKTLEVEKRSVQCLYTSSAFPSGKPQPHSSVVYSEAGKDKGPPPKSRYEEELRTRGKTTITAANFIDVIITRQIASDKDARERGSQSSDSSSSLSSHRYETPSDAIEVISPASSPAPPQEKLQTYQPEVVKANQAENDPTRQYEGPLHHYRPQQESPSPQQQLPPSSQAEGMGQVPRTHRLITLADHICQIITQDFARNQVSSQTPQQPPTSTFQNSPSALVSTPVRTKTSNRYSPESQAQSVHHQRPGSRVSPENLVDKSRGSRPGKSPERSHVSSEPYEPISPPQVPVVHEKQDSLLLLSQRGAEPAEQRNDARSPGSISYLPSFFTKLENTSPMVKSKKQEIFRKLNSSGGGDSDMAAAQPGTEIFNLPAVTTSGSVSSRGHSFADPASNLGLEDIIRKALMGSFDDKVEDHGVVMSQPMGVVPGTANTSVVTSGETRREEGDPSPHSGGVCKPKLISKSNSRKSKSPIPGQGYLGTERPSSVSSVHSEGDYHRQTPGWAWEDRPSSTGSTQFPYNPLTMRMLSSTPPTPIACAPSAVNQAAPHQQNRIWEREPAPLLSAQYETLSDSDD
T2 sequence (Q92769 whole entry): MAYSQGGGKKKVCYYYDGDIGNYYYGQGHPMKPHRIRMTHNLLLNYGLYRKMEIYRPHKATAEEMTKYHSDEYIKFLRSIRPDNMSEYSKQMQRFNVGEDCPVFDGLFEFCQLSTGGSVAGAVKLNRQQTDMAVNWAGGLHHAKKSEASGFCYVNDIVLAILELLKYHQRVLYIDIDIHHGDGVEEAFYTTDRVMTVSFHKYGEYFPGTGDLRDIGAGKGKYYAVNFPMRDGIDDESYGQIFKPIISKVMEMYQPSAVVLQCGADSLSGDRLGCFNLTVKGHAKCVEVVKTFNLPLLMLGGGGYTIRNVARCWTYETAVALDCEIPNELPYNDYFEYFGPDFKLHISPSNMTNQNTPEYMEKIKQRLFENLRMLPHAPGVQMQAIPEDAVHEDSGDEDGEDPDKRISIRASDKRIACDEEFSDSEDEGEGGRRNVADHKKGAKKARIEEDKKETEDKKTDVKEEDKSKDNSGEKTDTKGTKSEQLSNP
Histone deacetylase 4 (Homo sapiens), sequence (P56524 whole entry, the tested form may be a part): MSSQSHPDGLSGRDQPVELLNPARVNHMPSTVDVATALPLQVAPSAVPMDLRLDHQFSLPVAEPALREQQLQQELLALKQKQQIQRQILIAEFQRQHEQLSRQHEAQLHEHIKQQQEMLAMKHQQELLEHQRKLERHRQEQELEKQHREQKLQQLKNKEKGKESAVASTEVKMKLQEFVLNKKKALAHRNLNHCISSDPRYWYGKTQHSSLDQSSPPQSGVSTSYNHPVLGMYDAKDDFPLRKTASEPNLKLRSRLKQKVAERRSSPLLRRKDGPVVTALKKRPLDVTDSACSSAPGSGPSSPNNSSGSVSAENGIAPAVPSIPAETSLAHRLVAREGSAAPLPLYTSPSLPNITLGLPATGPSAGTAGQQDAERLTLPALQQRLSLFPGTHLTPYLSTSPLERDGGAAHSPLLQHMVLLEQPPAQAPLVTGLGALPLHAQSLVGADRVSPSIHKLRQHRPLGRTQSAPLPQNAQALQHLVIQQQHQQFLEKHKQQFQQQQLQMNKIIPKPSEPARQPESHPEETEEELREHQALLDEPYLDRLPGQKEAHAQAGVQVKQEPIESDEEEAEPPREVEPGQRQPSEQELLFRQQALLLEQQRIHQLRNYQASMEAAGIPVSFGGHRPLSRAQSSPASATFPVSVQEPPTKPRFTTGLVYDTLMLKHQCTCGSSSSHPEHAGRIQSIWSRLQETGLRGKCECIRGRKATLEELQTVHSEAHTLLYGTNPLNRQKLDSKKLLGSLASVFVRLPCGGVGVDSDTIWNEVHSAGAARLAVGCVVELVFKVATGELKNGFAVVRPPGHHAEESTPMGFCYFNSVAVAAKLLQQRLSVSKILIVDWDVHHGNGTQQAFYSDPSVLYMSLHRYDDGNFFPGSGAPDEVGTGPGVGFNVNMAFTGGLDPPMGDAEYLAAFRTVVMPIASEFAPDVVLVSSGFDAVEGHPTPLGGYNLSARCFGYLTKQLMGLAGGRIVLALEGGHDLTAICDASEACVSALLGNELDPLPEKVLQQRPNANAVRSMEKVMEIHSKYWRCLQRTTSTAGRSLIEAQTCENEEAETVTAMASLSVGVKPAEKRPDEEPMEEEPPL

SMILES	IC50 (Histone deacetylase 8) [nM]	inhibition [1]	IC50 [2] [nM]	IC50 (Histone deacetylase 2 [3]) [nM]	TDI [4]	Activity (MCF7 [5])	inhibition (Histone deacetylase 1 [6])	IC50 (Histone deacetylase 1 [7]) [nM]	Activity (MCF7 [8])	Activity (MCF7 [9])	inhibition (Histone deacetylase 2 [10])	inhibition (Histone deacetylase 2 [11]) [%]	Activity (MCF7 [12])	TDI [13]	Activity (MCF7 [14])	Activity (MCF7 [15])	Activity (MCF7 [16])	GI50 (MCF7 [17]) [nM]
Nc1ccc(-c2cccs2)cc1NC(=O)c1ccc(-c2cn(C[S+]([O-])c3ccccc3)nn2)cc1 (centres undefined)	4450	inactive	> 10000	19	Active	Active	Active	8.2	Active	Active	Dose-Dependent Effect	87	Active	Active	Active	Active	Active	1860
Nc1ccc(-c2cccs2)cc1NC(=O)c1ccc(-c2cn(CS(=O)(=O)c3ccccc3)nn2)cc1	> 10000	inactive	> 10000	68	Active	Active	Active	12	Active	Active	Dose-Dependent Effect	77	Active	Active	Active	Active	Active	43
Nc1ccc(-c2cccs2)cc1NC(=O)c1ccc(-c2cn(CCc3ccccn3)nn2)cc1	> 10000	inactive	> 10000	17	Active	Active	Active	6.5	Active	Active	Dose-Dependent Effect	81	Active	Active	Active	Active	Active	52500
